Like-named read-outs stand apart in the source and are kept apart here.
Tested on: HTT mRNA
Assay: Splicing assay (RT-qPCR) monitoring HTT canonical junction (CJ) and alternative junction (AJ) mRNA isoforms
Format: cell-based
Conditions: A673 or K562 cells, 24 h treatment, top dose 10 uM
Experimental: Compounds described herein were used to modulate RNA transcript abundance in cells. The expression of a target mRNA was measured by detecting the formation of an exon-exon junction in the canonical transcript (CJ). A compound mediated exon-inclusion event was detected by observing an increase in formation of a new junction with an alternative exon (AJ). Real-time qPCR assays were used to detect these splicing switches and interrogate the potency of various compounds towards different target genes. A high-throughput real time quantitative PCR (RT-qPCR) assay was developed to measure these two isoforms of the mRNA (CJ and AJ) for an exemplary gene, HTT, together with a control housekeeping gene, GAPDH or GUSB or PPIA, used for normalization. Briefly, the A673 or K562 cell line was treated with various compounds described herein (e.g., compounds of Formula (I)). After treatment, the levels of the HTT mRNA targets were determined from each sample of cell lysate by cDNA synthesis followed by qPCR.
• Cells-to-CT 1-step kit: ThermoFisher A25602, Cells-to-CT lysis reagent: ThermoFisher 4391851C, TaqMan™ Fast Virus 1-Step Master Mix: ThermoFisher 4444436 • GAPDH: VIC-PL, ThermoFisher 4326317E (Assay: Hs99999905_m1)—used for K562/suspension cell lines • GUSB: VIC-PL, ThermoFisher 4326320E (Assay: Hs99999908_m1)—used for K562/suspension cell lines • PPIA: VIC-PL, ThermoFisher 4326316E (Assay: Hs99999904_m1) — used for A673/adherent cell lines
The A673 cell line was cultured in DMEM with 10% FBS. Cells were diluted with full growth media and plated in a 96-well plate (15,000 cells in 100 ul media per well). The plate was incubated at 37° C. with 5% CO2 for 24 hours to allow cells to adhere. An 11-point 3-fold serial dilution of the compounds was made in DMSO then diluted in media in an intermediate plate. Compounds were transferred from the intermediate plate to the cell plate with the top dose at a final concentration of 10 uM in the well. Final DMSO concentration was kept at or below 0.25%. The cell plate was returned to the incubator at 37° C. with 5% CO2 for an additional 24 hours.
The K562 cell line was cultured in IMDM with 10% FBS. For K562, cells were diluted with full growth media and plated in either a 96-well plate (50,000 cells in 50 uL media per well) or a 384-well plate (8,000-40,000 cells in 45 uL media per well). An 11-point 3-fold serial dilution of the compounds were made in DMSO then diluted in media in an intermediate plate. Compound was transferred from the intermediate plate to the cell plate with the top dose at a final concentration of 10 uM in the well. Final DMSO concentration was kept at or below 0.25%. Final volume was 100 uL for 96-well plate and 50 uL for 384-well plate. The cell plate was then placed in an incubator at 37° C. with 5% CO2 for 24 hours.
The cells were then gently washed with 50 uL-100 uL cold PBS before proceeding to addition of lysis buffer. 30 uL-50 uL of room temperature lysis buffer with DNAse I (and optionally RNAsin) was added to each well. Cells were shaken/mixed thoroughly at room temperature for 5-10 minutes for lysis to take place and then 3 uL-5 uL of room temperature stop solution was added and wells were shaken/mixed again. After 2-5 minutes, the cell lysate plate was transferred to ice for RT-qPCR reaction setup. The lysates could also be frozen at −80° C. for later use.
In some cases, a direct lysis buffer was used. An appropriate volume of 3× lysis buffer (10 mM Tris, 150 mM NaCl, 1.5%-2.5% Igepal and 0.1-1 U/uL RNAsin, pH 7.4) was directly added to either K562 or A673 cells in media and mixed by pipetting 3 times. The plates were then incubated at room temperature with shaking/rocking for 20-50 minutes to allow for lysis to take place. After this time, the cell lysate plate was transferred to ice to set up for the RT-qPCR reactions. The lysates could also be frozen at −80° C. for later use. […]

[1] = decrease in CJ mRNA (50% response), read-out: HTT CJ AC50
[2] = increase in AJ mRNA (50% response), read-out: HTT AJ AC50

SMILES	AC50 [1] [µM]	AC50 [2] [µM]
Cc1cn2nc(-c3ccc4c(c3F)CCN(C3CCNCC3)C4=O)cc(C)c2n1 [Compound 188, 6-{2,8-dimethylimidazo[1,2-b]pyridazin-6-yl}-5-fluoro-2-(piperidin-4-yl)-3,4-dihydroisoquinolin-1-one]	1 to 10	1 to 10
Cc1cn2nc(-c3ccc4c(c3)CCN(C3CCNCC3)C4=O)cc(C)c2n1 [Compound 185, 6-[2,8-dimethylimidazo [1,2-b]pyridazin-6-yl]-2-(piperidin-4-yl) -3,4-dihydroisoquinolin-1-one]	0.1 to 1	1 to 10
Cc1cn2nc(-c3ccc4c(=O)n(C5CCNCC5)ncc4c3)cc(C)c2n1 [Compound 186, 6-[2,8-dimethylimidazo[1,2-b]pyridazin-6-yl]-2-(piperidin-4-yl)phthalazin-1-one]	< 0.1	< 0.1
Cc1cn2cc(-c3ccc4c(=O)n(C5CCNCC5)ncc4c3)nc2c(C)n1 [Compound 258]	1 to 10	> 10

Source: patent publication US20230159496A1, “COMPOUNDS AND METHODS FOR MODULATING SPLICING” (REMIX THERAPEUTICS INC., priority 2020, published 2023)
